Where a SMILES comes first, the peptide text is derived from it. The star is where a group is joined. Cbz = O=C(OCc1ccccc1)*
Legend:
EGFR^Del19 = EGFR^Del19 (Homo sapiens, UniProt P00533+Q96SW2, DEL746-750); assay: Western blot of EGFR degradation in HCC827 cells; type: cell-based; design: host or cells: HCC827; conditions: for Degradation activity, in words / EGFR degradation (%): 10 nM; for Degradation activity, in words: HCC827 (EGFR^Del19) cells; for EGFR degradation (%): HCC827, 24 h, average of two independent experiments, NA = not active; for Effect of inhibitor pretreatment on EGFR^Del19 degradation induced by compound 14 / Rescue of EGFR^Del19 reduction induced by compound 12 or 14 (competition): HCC827; for Effect of inhibitor pretreatment on EGFR^Del19 degradation induced by compound 14: 2 μM MG132 or 5 μM MLN4924 for 2 h, then 10 nM of 14 for 8 h; for Rescue of EGFR^Del19 reduction induced by compound 12 or 14 (competition): 2 h pretreatment, 10 nM degrader 4 h
Protocol: HCC827 and H1975 cell lines were purchased from ATCC (United States) and cultured according to the manuals. Cells were grown in monolayers in appropriate media supplemented with 10% fetal bovine serum and 1% antibiotic/antimycotic solution.
Cells at 70%–90% confluence were lysed in RIPA buffer with complete protease inhibitor cocktail (Roche Applied Science, Penzberg, Germany). Lysates were quantified, separated on SDS-PAGE gels, and transferred onto PVDF membranes, followed by the blockade with 5% milk in TBS+ 0.1% Tween-20 buffer for 1 h at room temperature. The following primary antibodies were used: anti-EGFR (1:50000, ABclonal Technology, Wuhan, China), anti-pEGFR (Tyr1068, […], Cell Signaling Technology, MA, United States), anti-AKT (1:10000, ABclonal Technology, Wuhan, China), anti-pAKT (1:10000, ABclonal Technology, Wuhan, China), and anti-β-actin (1:10000, ABclonal Technology, Wuhan, China). Protein bands were detected using Tanon High-signal ECL Western Blotting Substrate (Tanon Science and Technology Co., Ltd., Shanghai, China). The band density of the protein of interest was quantified using ImageJ.

H1975 cells = assay: Cell viability (CCK-8) in H1975 cells; type: cell-based; conditions: up to 1 μM, 96 h
Protocol: (§1) Cells (5 × 10^3 for 48 h or 1 × 10^3 for 96 h) were seeded in 96-well plates, allowed to attach overnight, and then incubated with various concentrations of compounds for 48 h or 96 h. The viability of cells was determined using Cell Counting Kit-8 (CCK-8; Dojindo), and IC50 was calculated using GraphPad Prism (version 6.0). For colony formation assays, cells (1 × 10^3 cells/well) seeded in 24-well plates were treated with different concentrations of compounds and replaced with fresh media with compounds every 4 days. After 7 days, the cells were washed with PBS, fixed with methanol, and stained with 0.1% crystal violet solution.

HeLa cells = assay: Cell viability (CCK-8) in HeLa cells; type: cell-based; conditions: up to 1 μM, 96 h
Protocol: as §1

H1299 cells = assay: Cell viability (CCK-8) in H1299 cells; type: cell-based; conditions: up to 1 μM, 96 h
Protocol: as §1

HCC827 cells = assay: Cell viability (CCK-8) in HCC827 cells; type: cell-based, human; conditions: up to 200 nM
Protocol: as §1, with “The” for “Cells (5 × 10^3 for 48 h or 1 × 10^3 for 96 h) were seeded in 96-well plates, allowed to attach overnight, and then incubated with various concentrations of compounds for 48 h or 96 h. The”

O=C1CCC(N2C(=O)c3ccc(OCCCCCOc4cc5ncnc(Nc6ccc(F)c(Cl)c6)c5cc4OCCCN4CCOCC4)cc3C2=O)C(=O)N1 (stereo not drawn) [Compound 1]
Degradation activity, in words (EGFR^Del19): no degradation effect
EGFR degradation (%) (EGFR^Del19): −6.6 ± 4.2%

O=C1CCC(N2C(=O)c3ccc(OCCCCCCCCOc4cc5ncnc(Nc6ccc(F)c(Cl)c6)c5cc4OCCCN4CCOCC4)cc3C2=O)C(=O)N1 (stereo not drawn) [Compound 2]
Degradation activity, in words (EGFR^Del19): weak degradation activities
EGFR degradation (%) (EGFR^Del19): 15.3 ± 5.9%

O=C1CCC(N2C(=O)c3ccc(OCCCCCCCCCCCOc4cc5ncnc(Nc6ccc(F)c(Cl)c6)c5cc4OCCCN4CCOCC4)cc3C2=O)C(=O)N1 (stereo not drawn) [Compound 3]
Degradation activity, in words (EGFR^Del19): weak degradation activities
EGFR degradation (%) (EGFR^Del19): 7.0 ± 9.3%

O=C1CCC(N2C(=O)c3ccc(N4CCN(C(=O)CCCCCCCOc5cc6ncnc(Nc7ccc(F)c(Cl)c7)c6cc5OCCCN5CCOCC5)CC4)cc3C2=O)C(=O)N1 (stereo not drawn) [Compound 6]
EGFR degradation (%) (EGFR^Del19): 15.0 ± 4.0%

O=C1CCC(N2C(=O)c3ccc(N4CCN(CCCCCCCCCCOc5cc6ncnc(Nc7ccc(F)c(Cl)c7)c6cc5OCCCN5CCOCC5)CC4)cc3C2=O)C(=O)N1 (stereo not drawn) [Compound 7]
EGFR degradation (%) (EGFR^Del19): 19.4 ± 15.1%

O=C1CCC(N2C(=O)c3ccc(N4CCN(CCCC(=O)N5CCN(CCCOc6cc7ncnc(Nc8ccc(F)c(Cl)c8)c7cc6OCCCN6CCOCC6)CC5)CC4)cc3C2=O)C(=O)N1 (stereo not drawn) [Compound 9]
EGFR degradation (%) (EGFR^Del19): 66.3 ± 22.7%

O=C1CCC(N2C(=O)c3ccc(N4CCN(CCCCN5CCN(CCCOc6cc7ncnc(Nc8ccc(F)c(Cl)c8)c7cc6OCCCN6CCOCC6)CC5)CC4)cc3C2=O)C(=O)N1 (stereo not drawn) [Compound 10]
EGFR degradation (%) (EGFR^Del19): 32.4 ± 17.1%

O=C1CCC(N2C(=O)c3ccc(N4CCN(CCN5CCN(CCOc6cc7ncnc(Nc8ccc(F)c(Cl)c8)c7cc6OCCCN6CCOCC6)CC5)CC4)cc3C2=O)C(=O)N1 (stereo not drawn) [Compound 11]
EGFR degradation (%) (EGFR^Del19): 25.1 ± 11.2%

O=C1CCC(N2C(=O)c3ccc(N4CCN(CCCN5CCN(CCOc6cc7ncnc(Nc8ccc(F)c(Cl)c8)c7cc6OCCCN6CCOCC6)CC5)CC4)cc3C2=O)C(=O)N1 (stereo not drawn) [Compound 13]
EGFR degradation (%) (EGFR^Del19): 16.8 ± 10.5%

COc1cc2c(Nc3ccc(F)c(Cl)c3)ncnc2cc1OCCCN1CCN(CCN2CCN(c3ccc4c(c3)C(=O)N(C3CCC(=O)N(C)C3=O)C4=O)CC2)CC1 (stereo not drawn) [Compound 15]
Degradation activity, in words (EGFR^Del19): completely lost its degradation ability

CC(C)C[C@@H](C=O)NC(=O)[C@H](CC(C)C)NC(=O)[C@H](CC(C)C)NC(=O)OCc1ccccc1 [MG132, reference compound] (Cbz-Leu-Leu-Leu-aldehyde)
Effect of inhibitor pretreatment on EGFR^Del19 degradation induced by compound 14 (EGFR^Del19): restored

NS(=O)(=O)OC[C@@H]1C[C@@H](n2ccc3c(N[C@H]4CCc5ccccc54)ncnc32)C[C@@H]1O [MLN4924, reference compound]
Effect of inhibitor pretreatment on EGFR^Del19 degradation induced by compound 14 (EGFR^Del19): restored

COc1cc2ncnc(Nc3ccc(F)c(Cl)c3)c2cc1OCCCN1CCOCC1 [gefitinib, reference compound]
Effect on viability (H1975 cells): did not affect the viability
Effect on viability (HeLa cells): did not affect the viability
Effect on viability (H1299 cells): did not affect the viability

O=C1CCC(N2C(=O)c3ccccc3C2=O)C(=O)N1 (stereo not drawn) [thalidomide, reference compound]
Rescue of EGFR^Del19 reduction induced by compound 12 or 14 (competition) (EGFR^Del19; 100 times the degrader dose (1 μM)): slight decrease in EGFR^Del19 was still observed
Rescue of EGFR^Del19 reduction induced by compound 12 or 14 (competition) (EGFR^Del19; 500 times the degrader dose (5 μM)): completely rescue
Influence on viability of HCC827 cells (HCC827 cells): no influence

From publication PMC12592173, “Targeted degradation of EGFR 19Del by PROTACs suppresses tumor growth in non-small-cell lung cancer” (Frontiers in Pharmacology, 2025)
